Values quoted from earlier work, collected in US20070111204A1, “Methods for detecting nucleic acid variations” (priority 2003, published 2007).

Tested on: CGRP
Settings: marmoset, electrical stimulation of the trigeminal ganglion (Doods et al. 2000)

NCCCC[C@H](NC(=O)[C@@H](Cc1cc(Br)c(O)c(Br)c1)NC(=O)N1CCC(N2Cc3ccccc3NC2=O)CC1)C(=O)N1CCN(c2ccncc2)CC1 [BIBN4096BS]
effect on increase of facial blood flow: blocked
